Source: US9273058B2 (BRISTOL-MYERS SQUIBB COMPANY, priority 2013, dated 2016)
Where two headings read alike, the source gives them in different places.

Experiments:
pancreatic tumor cell [1] = details: in vitro; Brockschmidt et al., Gut 2008; cited from earlier work
pancreatic tumor cell [2] = details: in vivo; Brockschmidt et al., Gut 2008; cited from earlier work
CK1ε = CK1ε (Homo sapiens, UniProt P49674); assay: CK1ε kinase assay (Caliper LabChip electrophoretic separation of fluoresceinated peptide substrate and product); assay type: biochemical; details: 200 pM CK1ε, 50 μM ATP, 1.5 μM peptide, 22 hours at room temperature; read-out: CK1ε IC50 range
How it was run: (§1)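 Kinase reactions ran 22 h at room temperature, were stopped with EDTA, and phosphorylated product was separated electrophoretically from unphosphorylated fluoresceinated peptide. Compounds were tested at eleven concentrations from 10 mM DMSO stocks. IC50 by non-linear regression.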

CK1δ = CK1δ (Homo sapiens, UniProt P48730); assay: CK1δ kinase assay (Caliper LabChip electrophoretic separation of fluoresceinated peptide substrate and product); assay type: biochemical; details: 200 pM CK1δ, 50 μM ATP, 1.5 μM peptide, 22 hours at room temperature; read-out: CK1δ IC50 range
How it was run: as §1

CK1ε, sequence (P49674 whole entry): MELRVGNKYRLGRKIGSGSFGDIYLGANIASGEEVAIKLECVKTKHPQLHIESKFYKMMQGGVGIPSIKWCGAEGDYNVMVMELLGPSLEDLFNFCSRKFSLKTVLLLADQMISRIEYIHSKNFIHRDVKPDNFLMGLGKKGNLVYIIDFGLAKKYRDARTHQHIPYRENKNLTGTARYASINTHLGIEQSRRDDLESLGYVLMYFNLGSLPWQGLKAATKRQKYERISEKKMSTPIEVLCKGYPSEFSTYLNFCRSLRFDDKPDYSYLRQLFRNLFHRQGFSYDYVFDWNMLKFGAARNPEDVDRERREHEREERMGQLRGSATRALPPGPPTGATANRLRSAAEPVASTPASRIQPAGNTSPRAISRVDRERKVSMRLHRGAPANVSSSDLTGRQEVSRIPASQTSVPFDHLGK
CK1δ, sequence (P48730 whole entry): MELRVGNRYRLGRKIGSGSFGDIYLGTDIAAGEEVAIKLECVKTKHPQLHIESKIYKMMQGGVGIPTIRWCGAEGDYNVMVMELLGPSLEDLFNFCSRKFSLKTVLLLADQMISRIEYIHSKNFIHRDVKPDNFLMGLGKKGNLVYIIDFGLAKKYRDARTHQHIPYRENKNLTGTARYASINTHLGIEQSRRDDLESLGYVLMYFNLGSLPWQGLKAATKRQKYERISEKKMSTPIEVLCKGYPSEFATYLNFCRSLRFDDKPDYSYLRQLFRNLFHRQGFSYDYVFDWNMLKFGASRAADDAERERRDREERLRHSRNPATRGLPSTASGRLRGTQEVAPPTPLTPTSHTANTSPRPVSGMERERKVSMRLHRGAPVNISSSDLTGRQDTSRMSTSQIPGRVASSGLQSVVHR

SMILES | IC50 (CK1ε) | IC50 (CK1δ) | pancreatic tumor cell growth (pancreatic tumor cell [1]) | pancreatic tumor cell growth (pancreatic tumor cell [2])
COc1cc(OC)c(C=C2C(O)=Nc3ccccc32)c(OC)c1 [IC261] | – | – | reduces pancreatic tumor cell growth | reduces pancreatic tumor cell growth
NC(=O)c1c(-c2cccc(Cl)c2)nn2c1CN(C(=O)N[C@H]1C[C@H](F)C1)CC2 [Compound 175, 2-(3-Chlorophenyl)-N^5-((1r,3r)-3-fluorocyclobutyl)-6,7-dihydropyrazolo[1,5-a] pyrazine-3,5(4H)-dicarboxamide] | 0.01 to 10 nM | 0.01 to 10 nM | – | –
NC(=O)c1c(-c2ccc(F)c(Cl)c2)nn2c1CN(C(=O)NC1CC3(C1)CC3(F)F)CC2 (single isomer, unassigned) [Compound 320, 2-(3-Chloro-4-fluorophenyl)-N^5-(1,1-difluorospiro[2.3]hexan-5-yl)-6,7-dihydropyrazolo[1,5-a]pyrazine-3,5(4H)-dicarboxamide] | 0.01 to 10 nM | 0.01 to 10 nM | – | –
CC(C)(C)NC(=O)N1Cc2c(C(N)=O)c(-c3ccc(F)c(Cl)c3)nn2CC1C(F)(F)F (single isomer, unassigned) [Compound 347, N^5-(tert-Butyl)-2-(3-chloro-4-fluorophenyl)-6-(trifluoromethyl)-6,7-dihydropyrazolo[1,5-a]pyrazine-3,5(4H)-dicarboxamide] | 0.01 to 10 nM | 10 to 100 nM | – | –
NC(=O)c1c(-c2cccc(Cl)c2)nn2c1CN(C(=O)NC1CC3(CC3)C1)CC2 [Compound 181, 2-(3-Chlorophenyl)-N^5-(spiro[2.3]hexan-5-yl)-6,7-dihydropyrazolo[1,5-a]pyrazine-3,5(4H)-dicarboxamide] | 0.01 to 10 nM | 0.01 to 10 nM | – | –

Now from value to molecule, other results behind:

IC50 (CK1ε) | IC50 (CK1δ) | SMILES | pancreatic tumor cell growth (pancreatic tumor cell [1]) | pancreatic tumor cell growth (pancreatic tumor cell [2])
0.01 to 10 nM | 0.01 to 10 nM | C[C@@H]1CN(C(=O)NC2CC(F)(F)C2)Cc2c(C(N)=O)c(-c3ccc(Cl)c(Cl)c3)nn21 [Compound A35, (R)-2-(3,4-Dichlorophenyl)-N^5-(3,3-difluorocyclobutyl)-7-methyl-6,7-dihydropyrazolo[1,5-a]pyrazine-3,5(4H)-dicarboxamide] | – | –
10 to 100 nM | 10 to 100 nM | CC1CN(C(=O)NC(C)(C)C)Cc2c(C(N)=O)c(-c3cccc(F)c3)nn21 (single isomer, unassigned) [Compound A108, N^5-(tert-Butyl)-2-(3-fluorophenyl)-7-methyl-6,7-dihydropyrazolo[1,5-a]pyrazine-3,5(4H)-dicarboxamide] | – | –
0.01 to 10 nM | 0.01 to 10 nM | CC1CN(C(=O)NC(C)(C)C)Cc2c(C(N)=O)c(-c3cccc(F)c3)nn21 (single isomer, unassigned) [Compound A109, N^5-(tert-Butyl)-2-(3-fluorophenyl)-7-methyl-6,7-dihydropyrazolo[1,5-a]pyrazine-3,5(4H)-dicarboxamide] | – | –
